For nine compounds, IC50 results are on record in BindingDB's records for patent US20240262804 (Hansoh Bio, 2024).

SMILES strings stand for the structures.

The target in this experiment is T1, Myosin-7 (Bos taurus, UniProt Q9BE39).
T1 construct: gene MYH7
T1 sequence (Q9BE39 whole entry, looked up): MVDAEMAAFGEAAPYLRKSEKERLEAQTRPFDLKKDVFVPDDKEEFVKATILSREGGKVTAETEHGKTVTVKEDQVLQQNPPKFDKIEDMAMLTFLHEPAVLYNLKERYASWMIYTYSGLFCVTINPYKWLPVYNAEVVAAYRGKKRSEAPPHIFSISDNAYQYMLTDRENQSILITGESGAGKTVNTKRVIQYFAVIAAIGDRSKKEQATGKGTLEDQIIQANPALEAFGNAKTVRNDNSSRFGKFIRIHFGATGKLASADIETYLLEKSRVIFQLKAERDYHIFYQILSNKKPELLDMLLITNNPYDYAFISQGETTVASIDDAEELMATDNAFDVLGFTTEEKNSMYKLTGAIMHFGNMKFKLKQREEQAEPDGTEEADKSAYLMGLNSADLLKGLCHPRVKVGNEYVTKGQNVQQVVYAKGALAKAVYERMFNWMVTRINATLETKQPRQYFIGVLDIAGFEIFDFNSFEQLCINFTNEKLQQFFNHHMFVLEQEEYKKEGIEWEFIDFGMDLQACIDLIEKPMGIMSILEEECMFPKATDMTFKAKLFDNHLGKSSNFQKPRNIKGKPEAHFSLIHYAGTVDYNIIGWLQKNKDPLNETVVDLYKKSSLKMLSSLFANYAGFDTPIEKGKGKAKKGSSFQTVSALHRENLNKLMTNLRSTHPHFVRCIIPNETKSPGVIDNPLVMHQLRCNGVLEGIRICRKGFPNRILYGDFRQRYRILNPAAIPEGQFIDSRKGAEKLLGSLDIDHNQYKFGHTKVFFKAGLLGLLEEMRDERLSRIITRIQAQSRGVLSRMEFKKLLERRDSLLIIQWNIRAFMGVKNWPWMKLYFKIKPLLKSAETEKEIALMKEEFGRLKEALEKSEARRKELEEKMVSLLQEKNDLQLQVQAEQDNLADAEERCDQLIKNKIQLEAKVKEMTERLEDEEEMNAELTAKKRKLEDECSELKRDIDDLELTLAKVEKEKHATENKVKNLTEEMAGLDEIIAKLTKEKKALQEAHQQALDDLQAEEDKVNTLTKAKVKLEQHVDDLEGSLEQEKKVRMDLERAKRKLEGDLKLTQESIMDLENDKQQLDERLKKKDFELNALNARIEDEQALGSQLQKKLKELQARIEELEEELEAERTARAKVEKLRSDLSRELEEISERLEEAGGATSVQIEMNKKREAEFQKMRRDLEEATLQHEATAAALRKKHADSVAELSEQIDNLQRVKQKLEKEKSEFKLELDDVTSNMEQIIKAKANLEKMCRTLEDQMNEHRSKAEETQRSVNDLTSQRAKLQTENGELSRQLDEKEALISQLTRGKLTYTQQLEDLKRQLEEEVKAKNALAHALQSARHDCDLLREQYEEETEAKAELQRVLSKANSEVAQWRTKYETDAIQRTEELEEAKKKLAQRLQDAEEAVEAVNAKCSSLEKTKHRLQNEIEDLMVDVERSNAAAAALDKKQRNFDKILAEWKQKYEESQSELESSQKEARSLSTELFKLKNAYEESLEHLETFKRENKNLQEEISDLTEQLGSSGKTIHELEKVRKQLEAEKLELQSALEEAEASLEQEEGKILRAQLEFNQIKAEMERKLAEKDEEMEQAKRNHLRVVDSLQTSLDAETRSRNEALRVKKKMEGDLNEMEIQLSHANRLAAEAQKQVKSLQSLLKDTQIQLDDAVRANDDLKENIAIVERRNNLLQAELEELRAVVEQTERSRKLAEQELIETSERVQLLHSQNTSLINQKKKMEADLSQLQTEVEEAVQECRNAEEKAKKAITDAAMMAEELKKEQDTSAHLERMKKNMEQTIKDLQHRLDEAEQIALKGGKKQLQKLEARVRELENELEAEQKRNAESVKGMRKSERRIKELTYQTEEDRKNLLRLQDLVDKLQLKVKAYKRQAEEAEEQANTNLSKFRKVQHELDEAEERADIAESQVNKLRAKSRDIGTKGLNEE
Briefly: Biochemical Assay. The protocol: In our experiments, bovine skinned cardiac myofibrils were isolated from the frozen bovine left ventricle as myosin's source in the ATPase assay. […] 75 μL of a solution containing bovine cardiac myofibrils, PK/LDH, and calcium were added to a 96 well plate for a 7 point dose-response. In some circumstances, 10 point-response was used to repeat the ATPase assays on compounds of interest. Compounds were added to the myofibrils solution and incubated for 5 minutes. The enzymatic reaction was started with the addition of 75 μL of a solution containing ATP, PEP, NADH, compounds, and calcium. The ATPase activity was measured by reading absorbance at 340 nm in a PerkinElmer Victor Nivo plate reader at 25° C. in kinetic mode for 15 minutes using clear bottom plates. The slopes of the absorbance changes as a function of time for the first 10 minutes were normalized to slopes on the control wells containing all reagents, including DMSO, but without compounds.
With `Cc1ccn(-c2cccc([C@H](C)Nc3nc(=O)n(C4CCOCC4)c(=O)[nH]3)c2)n1` [US20240262804, Example 6], the IC50 (in general, the concentration that inhibits the measured activity by half) amounted to 4.01 µM.
Compound `C[C@H](Nc1nc(=O)n(-c2ccccc2)c(=O)[nH]1)C1CCCCC1` [US20240262804, Example 1] yielded an IC50 of 8.05 µM.
To `Cc1nn(C)cc1-c1cccc([C@H](C)Nc2nc(=O)n(C3CCOCC3)c(=O)[nH]2)c1` [US20240262804, Example 5] belongs 3.59 µM.
Next, `C[C@H](Nc1nc(=O)n(CC(F)(F)F)c(=O)[nH]1)c1ccc(Cl)c(Cl)c1` [US20240262804, Example 173]: 2.85 µM; `Cc1cccc([C@H](C)Nc2nc(=O)n(C3CCOCC3)c(=O)[nH]2)c1` [US20240262804, Example 4]: 0.8 µM.
`C[C@H](Nc1nc(=O)n(C2CCOCC2)c(=O)[nH]1)c1cccc(C(C)(C)O)c1` [US20240262804, Example 8] registered an IC50 of 2.46 µM.
The compound `C[C@H](Nc1nc(=O)n(C2CCOCC2)c(=O)[nH]1)c1ccc(F)cc1Cl` [US20240262804, Example 162] had a concentration for half-maximal inhibition (IC50) of 1.21 µM.
The compound `C[C@H](Nc1nc(=O)n(C2CCOCC2)c(=O)[nH]1)c1cc(Cl)ccc1Cl` [US20240262804, Example 163] registered an IC50 of 0.93 µM.
To `CC(C)C(O)c1cccc([C@H](C)Nc2nc(=O)n(C3CCOCC3)c(=O)[nH]2)c1` (some centres undefined) [US20240262804, Example 9] belongs 1.18 µM.
